Data from patent US20100311714A1, “1H-IMIDAZO[4,5-c]QUINOLINONE COMPOUNDS” (priority 2009, published 2010).
In brackets after ≈: the same amount, converted by molar mass. Where two headings read alike, the source gives them in different places.

Columns and labels:
[1] = molecular target: T1, PI3K alfa (Homo sapiens, UniProt P42336); experiment: PI3K alpha kinase assay (Kinase-Glo luminescence); format: biochemical
T1 construct: His tag (C); made in house; host or cells: baculovirus BV1075; Tn5 (Trichoplusia ni) or TiniPro insect cells
T1 sequence (P42336 with tags, fused parts or gaps limits assumed): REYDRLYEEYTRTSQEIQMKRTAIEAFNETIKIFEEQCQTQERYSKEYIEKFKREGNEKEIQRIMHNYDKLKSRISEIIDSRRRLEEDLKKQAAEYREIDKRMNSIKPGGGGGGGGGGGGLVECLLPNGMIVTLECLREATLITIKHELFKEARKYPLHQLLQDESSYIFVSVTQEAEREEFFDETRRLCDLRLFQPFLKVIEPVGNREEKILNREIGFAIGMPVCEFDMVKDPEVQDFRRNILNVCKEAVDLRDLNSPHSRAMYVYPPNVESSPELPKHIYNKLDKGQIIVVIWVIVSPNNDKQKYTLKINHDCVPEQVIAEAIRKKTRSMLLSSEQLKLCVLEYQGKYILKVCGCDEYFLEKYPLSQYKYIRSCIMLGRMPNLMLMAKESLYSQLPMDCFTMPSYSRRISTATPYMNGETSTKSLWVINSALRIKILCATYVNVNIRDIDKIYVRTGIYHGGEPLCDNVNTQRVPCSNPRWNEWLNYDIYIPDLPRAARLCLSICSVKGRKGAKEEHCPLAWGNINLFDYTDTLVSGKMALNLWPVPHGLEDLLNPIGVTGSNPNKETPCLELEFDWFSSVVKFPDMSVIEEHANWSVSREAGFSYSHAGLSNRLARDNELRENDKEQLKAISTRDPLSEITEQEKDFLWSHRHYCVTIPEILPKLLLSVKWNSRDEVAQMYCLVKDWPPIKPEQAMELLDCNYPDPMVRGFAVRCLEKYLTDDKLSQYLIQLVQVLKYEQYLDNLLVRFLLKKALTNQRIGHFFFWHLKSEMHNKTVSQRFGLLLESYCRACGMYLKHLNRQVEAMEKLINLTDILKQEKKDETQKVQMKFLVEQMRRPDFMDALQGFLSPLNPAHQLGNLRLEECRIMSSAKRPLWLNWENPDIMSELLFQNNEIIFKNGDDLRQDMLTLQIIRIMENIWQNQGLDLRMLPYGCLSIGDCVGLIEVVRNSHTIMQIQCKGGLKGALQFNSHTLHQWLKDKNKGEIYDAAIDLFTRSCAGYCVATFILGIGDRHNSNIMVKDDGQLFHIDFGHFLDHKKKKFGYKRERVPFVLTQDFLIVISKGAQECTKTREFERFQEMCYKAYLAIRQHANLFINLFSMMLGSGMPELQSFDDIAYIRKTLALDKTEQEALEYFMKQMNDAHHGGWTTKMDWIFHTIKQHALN
Description: (§1) In a more preferred assay, the kinase reaction is performed in a final volume of 10 μL per well of a low volume non binding CORNING, 384 well black plate (Cat. No. #3676). The final concentrations of ATP and phosphatidyl inositol (PI) in the assay are 1 μM and 10 μg/mL respectively. The reaction is started by the addition of ATP.
(§2) The components of the assay are added per well as follows:
(§3) 50 nL test compounds in 90% DMSO per well, in columns 1-20, 8 concentrations (⅓ and 1/3.33 serial dilution step) in single. • Low control: […] of 90% DMSO in half the wells of columns 23-24 (0.45% in final). • High control: 50 nL of reference compound (e.g. compound of Example 7 in WO 2006/122806) in the other half of columns 23-24 (2.5 μM in final). • Standard: 50 nL of reference compound as just mentioned diluted as the test compounds in columns 21-22 • 20 mL ‘buffer’ are prepared per assay: • 200 μL of 1M TRIS HCl pH7.5 (10 mM in final) • 60 μL of 1M MgCl2 (3 mM in final) • 500 μL of 2M NaCl (50 mM in final) • 100 μL of 10% CHAPS (0.05% in final) • 200 μL of 100 mM DTT (1 mM in final) • 18.94 mL of nanopure water • 10 mL ‘PI’ are prepared per assay: • 200 μL of 1 mg/ml L-alpha-Phosphatidylinositol (Liver Bovine, Avanti Polar Lipids Cat. No. 840042C MW=909.12) prepared in 3% OctylGlucoside (10 μg/ml in final) • 9.8 mL of ‘buffer’ • 10 mL ‘ATP’ are prepared per assay: • 6.7 μL of 3 mM stock of ATP giving a final concentration of 1 μM per well • 10 mL of ‘buffer’ • 2.5 mL of each PI3K construct are prepared per assay in ‘PI’ with the following final concentration: • 10 nM PI3K alfa EMV B1075 • 25 nM beta EMV BV949 • 10 nM delta EMV BV1060 • 150 nM gamma EMV BV950 • 5 μL of ‘PI/PI3K’ are added per well. • 5 μl ‘ATP’ are added per well to start the reaction. • The plates are then incubated at room temperature for 60 minutes (alfa, beta, delta) or 120 minutes (gamma). • The reaction is terminated by the addition of 10 μL Kinase-Glo (Promega Cat. No. #6714). • The assay plates are read after 10 minutes in Synergy 2 reader (BioTek, Vermont USA) with an integration time of 100 milliseconds and sensitivity set to 191. • Output: The High control is around 60′000 counts and the Low control is 30′000 or lower • This luminescence assay gives a useful Z′ ratio between 0.4 and 0.7
Two different constructs, BV 1052 and BV 1075, are used to generate the PI3 Kinase α proteins for compound screening.
PI3K alpha is purified in three chromatographic steps: immobilized metal affinity chromatography on a Ni Sepharose resin (GE Healthcare, belonging to General Electric Company, Fairfield, Conn., USA), gel filtration utilizing a Superdex 200 26/60 column (GE Healthcare), and finally a cation exchange step on a SP-XL column (GE Healthcare). All buffers are chilled to 4° C. and lysis is performed chilled on ice. Column fractionation is performed rapidly at room temperature.
(§4) IC50 is determined by a four parameter curve fitting routine that comes along with “excel fit”. A 4 Parameter logistic equation is used to calculate IC50 values (IDBS XLfit) of the percentage inhibition of each compound at 8 concentrations (usually 10, 3.0, 1.0, 0.3, 0.1, 0.030, 0.010 and 0.003 μM). Alternatively, IC50 values are calculated using idbsXLfit model 204, which is a 4 parameter logistic model.

[2] = molecular target: T2, PI3K beta (Homo sapiens, UniProt P42338); experiment: PI3K beta kinase assay (Kinase-Glo luminescence); format: biochemical
T2 construct: for the full-length p110-b subunit are generated and fused by overlapping PCR; His tag (C); made in house; host or cells: baculovirus BV949; Tn5 (Trichoplusia ni) or TiniPro insect cells
T2 sequence (P42338 with tags, fused parts or gaps limits assumed): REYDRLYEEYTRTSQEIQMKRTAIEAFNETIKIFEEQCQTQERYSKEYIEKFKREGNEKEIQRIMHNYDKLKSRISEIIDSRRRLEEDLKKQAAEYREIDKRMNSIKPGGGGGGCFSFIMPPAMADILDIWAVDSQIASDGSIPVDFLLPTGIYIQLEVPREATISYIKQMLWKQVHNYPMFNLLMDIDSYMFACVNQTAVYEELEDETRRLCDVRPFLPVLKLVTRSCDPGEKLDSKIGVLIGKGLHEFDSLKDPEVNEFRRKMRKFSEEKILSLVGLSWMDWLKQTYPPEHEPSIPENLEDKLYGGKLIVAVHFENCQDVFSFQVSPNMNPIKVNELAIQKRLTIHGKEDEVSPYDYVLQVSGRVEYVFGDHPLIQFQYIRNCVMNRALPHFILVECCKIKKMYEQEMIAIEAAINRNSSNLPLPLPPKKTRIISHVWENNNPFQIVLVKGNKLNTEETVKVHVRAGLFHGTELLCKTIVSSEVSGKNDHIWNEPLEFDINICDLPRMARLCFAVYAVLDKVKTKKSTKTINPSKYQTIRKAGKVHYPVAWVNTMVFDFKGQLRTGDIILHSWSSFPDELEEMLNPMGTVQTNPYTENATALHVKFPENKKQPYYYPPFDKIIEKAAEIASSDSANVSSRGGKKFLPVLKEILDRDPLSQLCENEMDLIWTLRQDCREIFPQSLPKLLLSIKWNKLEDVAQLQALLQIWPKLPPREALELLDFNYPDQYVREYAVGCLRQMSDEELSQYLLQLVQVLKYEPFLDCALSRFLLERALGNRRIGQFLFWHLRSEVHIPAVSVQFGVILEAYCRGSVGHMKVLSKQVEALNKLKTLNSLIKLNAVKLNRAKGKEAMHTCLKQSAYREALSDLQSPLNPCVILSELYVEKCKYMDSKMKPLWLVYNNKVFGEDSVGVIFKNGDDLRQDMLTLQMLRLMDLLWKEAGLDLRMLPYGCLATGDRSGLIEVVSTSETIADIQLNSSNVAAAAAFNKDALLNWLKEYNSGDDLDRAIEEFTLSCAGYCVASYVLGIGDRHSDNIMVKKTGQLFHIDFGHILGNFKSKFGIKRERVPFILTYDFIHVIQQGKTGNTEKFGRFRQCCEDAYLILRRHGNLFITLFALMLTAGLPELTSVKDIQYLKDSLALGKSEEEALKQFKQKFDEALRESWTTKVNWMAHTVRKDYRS
Description: as §1, §2, §3
PI3Kβ BV-949 p85(iSH2)-Gly linker-r 110b(full-length)-C-term His Tag
PI3K beta is purified in two chromatographic steps: immobilized metal affinity chromatography (IMAC) on a Ni Sepharose resin (GE Healthcare) and gel filtration (GFC) utilizing a Superdex 200 26/60 column (GE Healthcare). All buffers are chilled to 4° C. and lysis is performed chilled on ice. Column fractionation is performed rapidly at room temperature.
as §4

[3] = High-throughput equilibrium solubility at pH 6.8; format: physicochemical; conditions: pH 6.8, aqueous buffer, thermodynamic from solid; read-out: HT-Eq Sol/pH 6.8
Excerpt: The physicochemical properties of relevance for the absorption of the compound, such as the solubility and the membrane permeability, especially at a pH close to neutral pH can be measured using the procedure as described by L. ZHOU et al. in JOURNAL OF PHARMACEUTICAL SCIENCES, VOL. 96, NO. 11, p. 3052-3071 (2007) for the solubility at pH 6.8 and the procedure as described by F. Wohnsland and B. Faller in Journal of Medicinal Chemistry Vol 44, p. 923-930 (2001) for the Parallel Artificial Membrane Permeability Assay (PAMPA) at pH 6.8.

Structure (SMILES)	IC50 ([1]; read-out: EPK_PI3Kalfa/IC50)	IC50 ([2]; read-out: EPK_PI3Kbeta/IC50)	solubility thermodynamic [3]	IC50 ([1]; read-out: PI3Kalfa/IC50)	IC50 ([2]; read-out: PI3Kbeta/IC50)
CNc1cc(-c2ccc3ncc4c(c3c2)n(-c2cccnc2C)c(=O)n4C)cnc1C [Example 2.32, 3-Methyl-8-(6-methyl-5-methylamino-pyridin-3-yl)-1-(2-methyl-pyridin-3-yl)-1,3-dihydro-imidazo[4,5-c]quinolin-2-one]	31 nM	61 nM	127 µg/mL (≈ 309 µM)	–	–
COc1ncc(-c2ccc3ncc4c(c3c2)n(-c2ccc(N3CC(O)C3)nc2C)c(=O)n4C)c(OC)n1 [Example 29.6, 8-(2,4-Dimethoxy-pyrimidin-5-yl)-1-[6-(3-hydroxy-azetidin-1-yl)-2-methyl-pyridin-3-yl]-3-methyl-1,3-dihydro-imidazo[4,5-c]quinolin-2-one]	23 nM	59 nM	15 µg/mL (≈ 30 µM)	–	–
COCc1ncc(-c2ccc3ncc4c(c3c2)n(-c2ccc(N3CCC3)nc2C)c(=O)n4C)cc1OC [Example 23.6, 1-(6-Azetidin-1-yl-2-methyl-pyridin-3-yl)-8-(5-methoxy-6-methoxymethyl-pyridin-3-yl)-3-methyl-1,3-dihydro-imidazo[4,5-c]quinolin-2-one]	44 nM	353 nM	21 µg/mL (≈ 42.3 µM)	–	–
Cc1cccnc1-n1c(=O)n(C)c2cnc3ccc(-c4ccc(CO)nc4)cc3c21 [Example 3.9, 8-(6-Hydroxymethyl-pyridin-3-yl)-3-methyl-1-(3-methyl-pyridin-2-yl)-1,3-dihydro-imidazo[4,5-c]quinolin-2-one]	–	–	> 397 µg/mL	383 nM	–
Cc1ccncc1-n1c(=O)n(C)c2cnc3ccc(-c4ccc(CO)nc4)cc3c21 [Example 4.1, 8-(6-Hydroxymethyl-pyridin-3-yl)-3-methyl-1-(4-methyl-pyridin-3-yl)-1,3-dihydro-imidazo[4,5-c]quinolin-2-one]	–	–	75 µg/mL (≈ 189 µM)	230 nM	–
Cc1ncccc1-n1c(=O)n(C)c2cnc3ccc(-c4ccc(OCCCN(C)C)nc4)cc3c21 [Example 2.10, 8-[6-(3-Dimethylamino-propoxy)-pyridin-3-yl]-3-methyl-1-(2-methyl-pyridin-3-yl)-1,3-dihydro-imidazo[4,5-c]quinolin-2-one]	–	–	> 469 µg/mL	–	–
CCOc1ncc(-c2ccc3ncc4c(c3c2)n(-c2ncccc2C)c(=O)n4C)cn1 [Example 3.1, 8-(2-Ethoxy-pyrimidin-5-yl)-3-methyl-1-(3-methyl-pyridin-2-yl)-1,3-dihydro-imidazo[4,5-c]quinolin-2-one]	–	–	39 µg/mL (≈ 94.6 µM)	410 nM	–
Cc1cccnc1-n1c(=O)n(C)c2cnc3ccc(-c4ccc(N(C)C)nc4)cc3c21 [Example 3.11, 8-(6-Dimethylamino-pyridin-3-yl)-3-methyl-1-(3-methyl-pyridin-2-yl)-1,3-dihydro-imidazo[4,5-c]quinolin-2-one]	–	–	39 µg/mL (≈ 95 µM)	321 nM	–

More lines, in order of falling IC50 ([1]; read-out: PI3Kalfa/IC50), values ahead:

IC50 ([1]; read-out: EPK_PI3Kalfa/IC50)	IC50 ([2]; read-out: EPK_PI3Kbeta/IC50)	solubility thermodynamic [3]	IC50 ([1]; read-out: PI3Kalfa/IC50)	IC50 ([2]; read-out: PI3Kbeta/IC50)	Structure (SMILES)
–	–	20 µg/mL (≈ 48.6 µM)	206 nM	–	CCOc1ccc(-c2ccc3ncc4c(c3c2)n(-c2ncccc2C)c(=O)n4C)cn1 [Example 3.6, 8-(6-Ethoxy-pyridin-3-yl)-3-methyl-1-(3-methyl-pyridin-2-yl)-1,3-dihydro-imidazo[4,5-c]quinolin-2-one]
–	–	50 µg/mL (≈ 122 µM)	206 nM	–	CCOc1ccc(-c2ccc3ncc4c(c3c2)n(-c2cnccc2C)c(=O)n4C)cn1 [Example 4.2, 8-(6-Ethoxy-pyridin-3-yl)-3-methyl-1-(4-methyl-pyridin-3-yl)-1,3-dihydro-imidazo[4,5-c]quinolin-2-one]
–	–	11 µg/mL (≈ 27.7 µM)	80 nM	–	CNc1ncc(-c2ccc3ncc4c(c3c2)n(-c2ncccc2C)c(=O)n4C)cn1 [Example 3.4, 3-Methyl-8-(2-methylamino-pyrimidin-5-yl)-1-(3-methyl-pyridin-2-yl)-1,3-dihydro-imidazo[4,5-c]quinolin-2-one]
–	–	195 µg/mL (≈ 457 µM)	57 nM	–	COc1ccc(-c2ccc3ncc4c(c3c2)n(-c2ncccc2C)c(=O)n4C)cc1OC [Example 3.10, 8-(3,4-Dimethoxy-phenyl)-3-methyl-1-(3-methyl-pyridin-2-yl)-1,3-dihydro-imidazo[4,5-c]quinolin-2-one]
–	–	10 µg/mL (≈ 23.6 µM)	53 nM	–	CNC(=O)c1ccc(-c2ccc3ncc4c(c3c2)n(-c2ncccc2C)c(=O)n4C)cc1 [Example 3.5, N-Methyl-4-[3-methyl-1-(3-methyl-pyridin-2-yl)-2-oxo-2,3-dihydro-1H-imidazo[4,5-c]quinolin-8-yl]-benzamide]
–	–	5 µg/mL (≈ 12.2 µM)	51 nM	–	Cc1cccnc1-n1c(=O)n(C)c2cnc3ccc(-c4ccc(C(N)=O)cc4)cc3c21 [Example 3.3, 4-[3-Methyl-1-(3-methyl-pyridin-2-yl)-2-oxo-2,3-dihydro-1H-imidazo[4,5-c]quinolin-8-yl]-benzamide]
–	–	4 µg/mL (≈ 10.1 µM)	47 nM	–	CN(C)c1ccc(-c2ccc3ncc4c(c3c2)n(-c2cccnc2)c(=O)n4C)cn1 [Example 5.3, 8-(6-Dimethylamino-pyridin-3-yl)-3-methyl-1-pyridin-3-yl-1,3-dihydro-imidazo[4,5-c]quinolin-2-one]
–	–	11 µg/mL (≈ 26.5 µM)	27 nM	263 nM	CNc1ccc(-c2ccc3ncc4c(c3c2)n(-c2ccc(F)nc2C)c(=O)n4C)cn1 [Example 7.4, 1-(6-Fluoro-2-methyl-pyridin-3-yl)-3-methyl-8-(6-methylamino-pyridin-3-yl)-1,3-dihydro-imidazo[4,5-c]quinolin-2-one]
–	–	6 µg/mL (≈ 13.2 µM)	9 nM	7 nM	Cn1c(=O)n(-c2cccnc2F)c2c3cc(-c4cnc(N)c(C(F)(F)F)c4)ccc3ncc21 [Example 6.2, 8-(6-Amino-5-trifluoromethyl-pyridin-3-yl)-1-(2-fluoro-pyridin-3-yl)-3-methyl-1,3-dihydro-imidazo[4,5-c]quinolin-2-one]
–	–	47 µg/mL (≈ 100 µM)	4 nM	7 nM	Cc1nc(F)ccc1-n1c(=O)n(C)c2cnc3ccc(-c4cnc(N)c(C(F)(F)F)c4)cc3c21 [Example 7.1, 8-(6-Amino-5-trifluoromethyl-pyridin-3-yl)-1-(6-fluoro-2-methyl-pyridin-3-yl)-3-methyl-1,3-dihydro-imidazo[4,5-c]quinolin-2-one]
